Measured values from patent publication US11319283B2, “Substituted cyclobutylbenzene compounds as indoleamine 2,3-dioxygenase (IDO) inhibitors” (MERCK SHARP & DOHME CORP., priority 2017, dated 2022).

Columns and labels:
Format in all cases: cell-based
IDO1 [1] = biological target: T1, IDO1 (Homo sapiens, UniProt P14902); assay: IDO1 HEK293 Cellular Assay; conditions: HEK293 cells transfected with Flag-IDO1 vector, 20-24 hours, fluorescence readout
Procedure: IDO1 HEK293 Cellular Assay
Compounds to be tested were serially diluted in ten 3-fold steps in DMSO starting from 10 mM DMSO stocks. Compound dilutions or DMSO alone were then dispensed from the dilution plate into a Greiner black 384-well assay plate (catalog #781086) using an Echo 550 acoustic liquid handler (Labcyte).
HEK293 cell pellets were resuspended to 5×10^5 cells/mL in complete HEK293 culture media (89% DMEM, 10% FBS, 1% penicillin/streptomycin). Suspended cells (2 mL) were dispensed into each well of a 6-well Corning plate (Catalog #3516). Cells were allowed to attach and were incubated for 20 hours at 37° C. in a 5% CO2 incubator. Flag-IDO1 vector (Genscript True ORF Gold, 2 ug) in 150 uL of Opti-MEM medium was added to each well of a Corning 24 well plate (Cat #3527) and incubated for 5 minutes at room temperature. To each well of the 24-well plate was added […] Lipofectamine 2000 (Gibco) and the plate incubated at room temperature for 20-30 minutes. To each well of attached cells in the 6-well plate, […] of the transfection mix from the 24-well plate was gently added to each well and IDO1 protein was allowed to express for 24-30 hours at 37 degrees Celsius in a 5% CO2 incubator.
Media was removed from the cells which were then washed with 2 mL Dulbecco's phosphate-buffered saline (DPBS). After removal of DPBS, 0.5 mL of TrypLE (Gibco) was added and incubated at 5 minutes until cells lift from the surface of the wells. Complete HEK293 culture media (4 mL) was added to each well and cells were collected and pooled into a conical tube. Cells were pelleted at 200×g for 5 minutes and resuspended in an equal volume of complete DMEM medium. Cells were diluted to 4×10^5 cells per mL in complete HEK293 media. L-Tryptophan was added to give a final concentration of […]. The diluted transfected cells […] or nontransfected cells […] were dispensed into wells of Greiner black 384-well assay plates (catalog #781086) containing previously diluted compounds. The plate is briefly mixed and centrifuged at 200×g for 10 seconds to collect cells at the bottom of the plate. Plates were covered and incubated for 20-24 hours at 37 degrees C. in a 5% CO2 incubator. Afterwards […] of 0.5 M methyl isonipecotate in dimethyl sulfoxide was added to each well, mixed, sealed, and centrifuged at 500 rpm for 10 seconds. Plates were incubated at 37 degrees in a 5% CO2 incubator overnight to develop fluoresence. The plates are allowed to cool and then centrifuged for 1 minute at 1000×g. The resulting fluoresence was measured in an Envision plate reader (Perkin Elmer) with a 400/25 nm excitation filter and an 510/20 nm emission filter.
The fluoresence intensity of each well was corrected for the background observed in wells with untransfected cells and was expressed as a fraction of the intensity observed in wells of IDO1 transfected cells and DMSO only. Potencies were calculated by linear least squares fit to the four parameter logistic IC50 equation.

TDO = biological target: T2, TDO (Homo sapiens, UniProt P48775); assay: TDO Cellular Assay in Frozen SW48 Cells; conditions: 300 uM L-tryptophan, about 48 hours, fluorescence readout
T2 construct: endogenous in cells; host or cells: SW48 cells (A2780 cells as control with minimal TDO activity)
Method in brief: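 SW48 cells in RPMI with 300 uM L-tryptophan were incubated ~48 h at 37° C with compounds in ten 3-fold dilutions. Signal was corrected for A2780 background and normalised to DMSO-only SW48 wells, with IC50 from a four-parameter logistic fit.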

IDO1 [2] = biological target: T1, IDO1; assay: IDO1 Cellular Assay in Hela Cells Stimulated with IFNγ; parameters: endogenous in cells; host or cells: HeLa cells stimulated with IFNγ (100 ng/mL); conditions: Hela cells stimulated with IFNγ 100 ng/mL, 300 uM L-tryptophan, about 48 hours, fluorescence readout
Method in brief: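 HeLa cells with 300 uM L-tryptophan, IFNγ-stimulated (unstimulated cells as max-effect control), exposed to compound (ten 3-fold dilutions) for about 48 h at 37 °C. IC50 by four-parameter logistic fit.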

T1 sequence (P14902 whole entry): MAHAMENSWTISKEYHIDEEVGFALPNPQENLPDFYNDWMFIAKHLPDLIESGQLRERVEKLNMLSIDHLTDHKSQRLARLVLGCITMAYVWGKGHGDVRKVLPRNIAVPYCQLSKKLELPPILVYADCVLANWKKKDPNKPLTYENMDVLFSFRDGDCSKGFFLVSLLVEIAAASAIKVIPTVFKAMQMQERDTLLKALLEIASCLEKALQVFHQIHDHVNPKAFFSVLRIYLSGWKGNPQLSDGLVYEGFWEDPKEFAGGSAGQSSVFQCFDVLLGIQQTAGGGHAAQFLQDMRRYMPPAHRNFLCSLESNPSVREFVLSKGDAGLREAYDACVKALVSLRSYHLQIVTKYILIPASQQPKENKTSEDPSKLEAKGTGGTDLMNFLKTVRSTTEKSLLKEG
T2 sequence (P48775 whole entry): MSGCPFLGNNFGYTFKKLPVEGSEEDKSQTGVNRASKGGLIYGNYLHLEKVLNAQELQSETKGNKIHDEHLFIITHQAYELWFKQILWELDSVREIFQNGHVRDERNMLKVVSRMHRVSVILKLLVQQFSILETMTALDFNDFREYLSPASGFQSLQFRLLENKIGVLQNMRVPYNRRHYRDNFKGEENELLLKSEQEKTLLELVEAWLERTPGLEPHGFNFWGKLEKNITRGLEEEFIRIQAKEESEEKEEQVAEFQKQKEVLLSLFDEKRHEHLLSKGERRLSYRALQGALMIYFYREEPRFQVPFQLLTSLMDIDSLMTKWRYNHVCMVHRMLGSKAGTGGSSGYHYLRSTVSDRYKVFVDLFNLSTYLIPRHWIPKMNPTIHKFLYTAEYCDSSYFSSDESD

Structure (SMILES) | IC50 (IDO1 [1]) [nM] | IC50 (TDO) [nM] | IC50 (IDO1 [2]) [nM]
O=C(Nc1ccc(C2(NC(=O)c3ncco3)CCC2)cc1)c1cccc(Cl)c1 [Example 12, N-(1-{4-[(3-chlorobenzene-1-carbonyl)amino]phenyl}cyclobutyl)-1,3-oxazole-2-carboxamide] | 16 | 585 | 28
O=C(Nc1ccc(C2(NC(=O)c3cscn3)CCC2)cc1)c1cccc(Cl)c1 [Example 14, N-(1-{4-[(3-chlorobenzene-1-carbonyl)amino]phenyl}cyclobutyl)-1,3-thiazole-4-carboxamide] | 23 | 1210 | 39
O=C(Nc1ccc(C2(NC(=O)c3nccs3)CCC2)cc1)c1cccc(Cl)c1 [Example 15, N-(1-{4-[(3-chlorobenzene-1-carbonyl)amino]phenyl}cyclobutyl)-1,3-thiazole-2-carboxamide] | 14 | 2510 | 53
O=C(Nc1ccc(C2(NC(=O)c3ccc(Cl)cc3)CCC2)cc1)c1cncnc1 [Example 17, N-(4-{1-[(4-chlorobenzene-1-carbonyl)amino]cyclobutyl}phenyl)pyrimidine-5-carboxamide] | 125 | ≥ 10000 | 108
O=C(Nc1ccc(C2(NC(=O)c3cncnc3)CCC2)cc1)c1cccc(Cl)c1 [Example 18, N-(1-{4-[(3-chlorobenzene-1-carbonyl)amino]phenyl}cyclobutyl)pyrimidine-5-carboxamide] | 92 | ≥ 10000 | 92
